# Assay results published in PMC7151106 (Pharmaceutics, 2020).
# Key:
# [1] = molecular target: T1, SGLT1 (Homo sapiens, UniProt P13866); experiment: Inhibition of [14C]AMG uptake in CHO-SGLT1 cells; assay type: cell-based; conditions: 10 μM [14C]AMG, 2 h
# T1 construct: host or cells: CHO
# T1 sequence (P13866 1-664): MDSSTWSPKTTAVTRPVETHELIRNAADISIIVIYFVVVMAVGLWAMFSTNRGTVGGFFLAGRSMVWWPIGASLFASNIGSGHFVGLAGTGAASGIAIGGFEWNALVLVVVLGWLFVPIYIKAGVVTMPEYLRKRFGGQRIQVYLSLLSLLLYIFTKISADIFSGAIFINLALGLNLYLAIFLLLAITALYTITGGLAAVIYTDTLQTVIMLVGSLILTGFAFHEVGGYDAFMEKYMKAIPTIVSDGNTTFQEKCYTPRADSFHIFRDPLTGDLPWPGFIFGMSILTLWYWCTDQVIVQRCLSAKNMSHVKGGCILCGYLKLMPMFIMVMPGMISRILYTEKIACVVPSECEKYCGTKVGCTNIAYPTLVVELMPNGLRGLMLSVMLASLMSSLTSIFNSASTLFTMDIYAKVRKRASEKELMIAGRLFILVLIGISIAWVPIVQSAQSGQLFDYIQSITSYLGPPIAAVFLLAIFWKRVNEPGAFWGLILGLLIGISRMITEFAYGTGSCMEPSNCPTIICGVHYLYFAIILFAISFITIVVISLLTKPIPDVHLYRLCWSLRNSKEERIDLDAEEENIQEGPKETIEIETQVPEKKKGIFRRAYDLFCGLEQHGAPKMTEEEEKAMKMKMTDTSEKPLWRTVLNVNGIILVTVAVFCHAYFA
# Procedure: CHO cells overexpressing SGLT1 and SGLT2 cells (CHO-SGLT1 and -SGLT2) and CHO-mock cells were characterized as previously described. Cells were maintained in RPMI1640 medium supplemented with 10% fetal bovine serum and 200 µg/mL G418 at 37 °C in 5% CO2 conditions. CHO-SGLT1 and -SGLT2 cells were seeded at a density of 1 × 10^5 cells/well in 96-well plates. After 24 h, the growth medium was discarded from the cells, and the cells were washed with pre-warmed Na^+-free buffer (10 mM HEPES, 5 mM Tris, 140 mM choline chloride, 2 mM KCl, 1 mM CaCl2, 1 mM MgCl2, pH7.4) and incubated for 1 h in Na^+-free buffer. After replacing Na^+-free buffer with Na^+ gradient buffer (10 mM HEPES, 5 mM Tris, 140 mM NaCl, 2 mM KCl, 1 mM CaCl2, 1 mM MgCl2, pH7.4) containing 10 µM [^14C]AMG, the uptake of [^14C]AMG into the CHO-mock cells and CHO-SGLT1 and -SLGT2 cells was measured for 0.5, 1, 1.5, 2, and 3 h. After a predetermined incubation time, cells were washed three times with 200 µL of ice-cold Na^+-free buffer immediately after placing the plates on ice. Then, the cells were lysed with 10% SDS, and the cell lysates were mixed with Optiphase cocktail solution. Thereafter, the radioactivity of the cell lysates was measured using a liquid scintillation counter.
# After 2 h, cells were washed three times with 200 µL of ice-cold Na^+-free buffer and the cells were lysed with 10% SDS (40 µL), followed by adding Optiphase cocktail solution (200 µL). The radioactivity of the cell lysates was measured using a liquid scintillation counter. The SGLT1 or SGLT2-mediated uptake of [^14C]AMG was calculated by the subtraction of the uptake rates of [^14C]AMG into the mock cells from those of the CHO-SGLT1 and -SLGT2 cells. In the inhibition studies, the percentages of the transport rate of AMG with or without SGLT2 inhibitors were calculated and the data were fitted to an inhibitory effect model. The IC50 (the concentration of the inhibitor to show half-maximal inhibition) values were calculated using Sigma Plot ver.10.0 (Systat Software, Inc.; San Jose, CA, USA).
# [2] = molecular target: T2, SGLT2 (Homo sapiens, UniProt P31639); experiment: Time dependency of SGLT2 inhibition (preincubation) in CHO-SGLT2 cells; assay type: cell-based; conditions: pretreatment 0, 1, 2 h
# T2 construct: host or cells: CHO
# T2 sequence (P31639 1-672): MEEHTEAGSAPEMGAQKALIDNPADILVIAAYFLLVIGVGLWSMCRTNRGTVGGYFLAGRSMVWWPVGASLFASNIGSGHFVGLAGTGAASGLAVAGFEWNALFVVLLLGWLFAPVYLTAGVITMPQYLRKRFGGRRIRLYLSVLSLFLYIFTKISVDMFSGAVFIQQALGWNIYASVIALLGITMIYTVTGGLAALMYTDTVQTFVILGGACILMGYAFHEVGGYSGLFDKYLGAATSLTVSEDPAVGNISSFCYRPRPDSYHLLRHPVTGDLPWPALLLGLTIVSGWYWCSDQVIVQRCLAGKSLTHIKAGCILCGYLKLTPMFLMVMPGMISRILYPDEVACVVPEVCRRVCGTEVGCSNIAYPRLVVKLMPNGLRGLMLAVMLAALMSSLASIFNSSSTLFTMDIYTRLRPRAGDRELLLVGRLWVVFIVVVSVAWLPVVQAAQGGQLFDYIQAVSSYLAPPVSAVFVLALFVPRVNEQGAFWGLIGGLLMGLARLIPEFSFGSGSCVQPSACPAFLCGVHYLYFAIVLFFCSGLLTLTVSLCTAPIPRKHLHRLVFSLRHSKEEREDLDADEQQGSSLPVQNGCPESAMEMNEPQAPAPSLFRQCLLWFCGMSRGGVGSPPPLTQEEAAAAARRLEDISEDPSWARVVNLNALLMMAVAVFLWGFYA
# Procedure: After 2 h of incubation, the radioactivity of the cell lysate was measured following the same sample preparation method described above.
# [3] = system: T3, OAT1; experiment: Substrate specificity / uptake in HEK293-OAT1 cells; assay type: in vitro ADME; conditions: 5 min
# T3 construct: host or cells: HEK293
# Procedure: (§1) HEK293-mock cells and HEK293 cells overexpressing OAT1 and OAT3 transporters (HEK293-OAT1 and -OAT3, respectively) were seeded in poly-D-lysine-coated 24-well plates at a density of 4 × 10^5 cells/well and cultured for 24 h in DMEM supplemented with 10% FBS and 5 mM non-essential amino acids at 37 °C in 8% CO2 condition.
# (§2) For each experiment, the growth medium was discarded after 24 h, and the attached cells were washed with pre-warmed HBSS and incubated with pre-warmed HBSS for 20 min at 37 °C. To confirm the functionality of OAT1 and OAT3, we measured the uptake of 0.1 µM [^3H]PAH and 0.1 µM [^3H]ES, representative substrates for OAT1 and OAT3, respectively, into in the HEK293-mock cells and HEK293-OAT1 and -OAT3 cells, respectively, for 5 min in the presence and absence of 20 µM probenecid, a typical inhibitor for both OAT1 and OAT3 [8, 9]. The cells were then washed three times with 500 μL of ice-cold HBSS immediately after placing the plates on ice. Subsequently, cells were lysed with 10% sodium dodecyl sulfate and mixed with Optiphase cocktail solution overnight. The radioactivity of the cell lysate was measured using a liquid scintillation counter (Microbeta 2; Perkin Elmer Inc., Boston, MA, USA).
# (§3) For the concentration dependency in the uptake of DWP16001, the uptake of DWP16001 in a concentration range of 0.5–50 μM dissolved in HBSS was measured for 5 min at 37 °C in the mock cells and HEK293-OAT1 and -OAT3 cells, respectively. After 5 min, the cells were washed three times with 500 μL of ice-cold HBSS immediately after placing the plates on ice.
# (§4) In the concentration-dependent uptake studies, the transporter-mediated uptake of DWP16001 was calculated by the subtraction of the transport rates of DWP16001 into the mock cells from those of the HEK293-OAT1 and -OAT3 cells. Kinetic parameters for the OAT1- and OAT3-mediated transport of DWP16001 were determined using the Michaelis-Menten equation [V = Vmax⋅S/(Km + S)] [10].
# [4] = in vivo; conditions: ICR, mouse, po, 1 mg/kg
# Procedure: (§5) An aliquot (30 µL) of each plasma sample was stored at −80 °C until the analysis. […] An aliquot (50 µL) of each kidney homogenate sample was stored at −80 °C until the analysis.
# (§6) For the analysis of SGLT2 inhibitors, aliquots of plasma (30 µL) and kidney homogenate (50 µL) were added to 100 μL of aqueous solution of D4-DWP16001 (IS, 20 ng/mL), and vigorously mixed with 500 μL methyl tert-butyl ether (MTBE) for 15 min. After centrifugation at 16,000 g for 5 min, samples were kept for 1 h at −80 °C to make an aqueous layer freeze. An organic upper layer was transferred to a clean tube and evaporated to dryness under a gentle stream of nitrogen. Then, the dried extract was reconstituted in 150 µL of mobile phase, and a 3 µL aliquot of the reconstituent was injected into a liquid chromatography–tandem mass spectrometry (LC–MS/MS) system.
# (§7) Pharmacokinetic parameters, such as the area under plasma concentration-time curve from zero to infinity (AUC), were calculated from plasma concentration vs time curves using non-compartment analysis with WinNonlin (version 5.1; Pharsights, Cary, NC, USA). The AUC ratios (i.e., ratios of kidney AUC to plasma AUC) were calculated by dividing the AUC of the three SGLT2 inhibitors in the kidney by the plasma AUC values of the three SGLT2 inhibitors.
# [5] = physchem
# [6] = molecular target: T2, SGLT2; experiment: Mode of inhibition on SGLT2 (Dixon plots) in CHO-SGLT2 cells; assay type: cell-based; conditions: 1, 2.5, 5, 50 μM [14C]AMG
# Procedure: The radioactivity of the cell lysate was measured following the same sample preparation method described above.
# [7] = design: method as in PMID 27430987; conditions: cited from earlier work
# [8] = molecular target: T2, SGLT2; experiment: Recovery of SGLT2 activity after washout following 24 h exposure in CHO-SGLT2 cells; assay type: cell-based; conditions: 0.2–200 nM
# Procedure: After 24 h, the RPMI1640 medium was replaced with pre-warmed fresh RPMI1640 medium and incubated for 1, 2, 3, 5, and 6 h, and proceeded another pre-incubation with Na^+-free buffer for 1 h. Then, after replacing Na^+-free buffer with Na^+ gradient buffer containing 10 µM [^14C]AMG, the uptake of [^14C]AMG into the CHO-SGLT2 cells was measured for 2 h. After 2 h of incubation, the radioactivity of the cell lysate was measured following the same sample preparation method described above.
# [9] = mouse, in vivo, po, 1 mg/kg
# Procedure: as §5, §6, §7
# [10] = system: T4, OAT3; experiment: Substrate specificity / uptake in HEK293-OAT3 cells; assay type: in vitro ADME; conditions: 5 min
# T4 construct: host or cells: HEK293
# Procedure: as §1, §2, §3, §4
structure (smiles),measurement,setting,value
"CO[C@H]1O[C@H](CO)[C@@H](O)[C@H](O)[C@H]1O [AMG, methyl a-D-glucopyranoside]",AMG uptake into CHO-SGLT1 cells relative to CHO-mock cells,[1],42 fold
"CCOc1ccc(Cc2cc([C@@H]3O[C@H](CO)[C@@H](O)[C@H](O)[C@H]3O)ccc2Cl)cc1 [Dapagliflozin, dapagliflozin]",Time dependency of SGLT2 inhibition,[2],time-independent
same,Substrate for OAT1,"[3]; 2 μM, HEK293-OAT1 vs mock, ± 20 μM probenecid",not substrates
same,AUC(0-inf),[4],550 ± 144000 ng·h/mL
same,AUC(0-t),[4],480 ± 180 ng·h/mL
same,Cmax,[4],275 ± 144 ng/mL
same,Kp,[4],64.6 ± 31.8
same,logP,[5],2.27
same,Mode of inhibition on SGLT2,[6],reversible and competitive
same,Duration of increased urinary glucose excretion post dose,[7],≥ 18 h
same,Time after drug removal to recovery of SGLT2 activity to the control level,[8],4 h
same,AUC72h,[9],26.30 ± 3.34 μg∙h/g tissue
same,Substrate for OAT3,"[10]; 2 μM, HEK293-OAT3 vs mock, ± 20 μM probenecid",not substrates
"C[C@]12CC[C@@H]3c4ccc(OS(=O)(=O)O)cc4CC[C@H]3[C@@H]1CCC2=O [ES, Estrone-3-sulfate]",Increase in probe substrate uptake in HEK293-OAT3 vs HEK293-mock cells,[10]; 0.1 μM [3H]ES,16.4 fold
"Nc1ccc(C(=O)NCC(=O)O)cc1 [PAH, Para-aminohipuric acid]",Increase in probe substrate uptake in HEK293-OAT1 vs HEK293-mock cells,[3]; 0.1 μM [3H]PAH,14.7 fold
